According to ChEMBL document CHEMBL1201862, “PubChem BioAssay data set” (2004):
Active and inactive are the calls of the source.

Assays:
Coagulation factor XII = Coagulation factor XII (Homo sapiens, UniProt P00748); test: Factor XIIa Dose Response Confirmation from Single Well HTS. [Related pubchem assays (depositor defined):AID701]; type: functional
[1] = Luminescence Cell-Based Dose Response HTS to Identify Inhibitors of 5'UTR Stem-Loop Driven Prion Protein mRNA Translation in H4 Neuroglioblastoma Cells. [Related pubchem assays: 1827 (Project Summary), 1813 (Primary HTS)]; type: functional
[2] = inhibitors of firefly luciferase expression or activity, dose response, H4 neuroglioma cells, luminescence (AID 1990); type: functional, cell-based
[3] = target: Sphingosine 1-phosphate receptor 4 (Homo sapiens, UniProt O95977); test: Late-stage fluorescence dose response cell-based assay to identify agonists of the Sphingosine 1-Phosphate Receptor 4 (S1P4): purchased compounds EC50. [Related pubchem assays (depositor defined):AID1509, AID1523, AID1563, AID1686, AID1701, AID1801]; type: functional
Sequence of Sphingosine 1-phosphate receptor 4 (O95977 whole entry): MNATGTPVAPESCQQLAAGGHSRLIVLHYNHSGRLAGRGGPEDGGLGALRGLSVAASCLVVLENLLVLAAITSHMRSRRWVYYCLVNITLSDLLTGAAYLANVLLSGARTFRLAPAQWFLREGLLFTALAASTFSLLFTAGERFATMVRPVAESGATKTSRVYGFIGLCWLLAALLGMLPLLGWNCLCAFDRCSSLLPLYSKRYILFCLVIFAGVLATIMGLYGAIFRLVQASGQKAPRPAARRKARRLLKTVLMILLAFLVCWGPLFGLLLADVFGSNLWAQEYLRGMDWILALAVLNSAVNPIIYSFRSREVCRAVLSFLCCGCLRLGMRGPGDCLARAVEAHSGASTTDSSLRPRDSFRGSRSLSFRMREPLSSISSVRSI

[4] = inhibitors of SNCA 5'UTR-driven reporter translation, confirmation, H4 neuroglioma cells, luminescence (AID 1988); type: functional, cell-based
HEK293 [5] = test: cells; type: functional, cell-based; conditions: Homo sapiens
HEK293 [6] = test: cells; type: functional, cell-based; conditions: Homo sapiens; remark: listed apart in the source
[7] = target: Heat shock protein HSP 90-alpha (Homo sapiens, UniProt P07900); type: functional, organism-based
[8] = target: G-protein coupled receptor 35 (Homo sapiens, UniProt Q9HC97); test: GPR35 antagonists blocking zaprinast-driven arrestin recruitment, primary screen, imaging, U2OS, beta-arrestin-GFP, zaprinast agonist (AID 2058); type: functional;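 also: antagonist potency meaning inhibition of agonist-induced arrestin redistribution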
Sequence of G-protein coupled receptor 35 (Q9HC97 whole entry): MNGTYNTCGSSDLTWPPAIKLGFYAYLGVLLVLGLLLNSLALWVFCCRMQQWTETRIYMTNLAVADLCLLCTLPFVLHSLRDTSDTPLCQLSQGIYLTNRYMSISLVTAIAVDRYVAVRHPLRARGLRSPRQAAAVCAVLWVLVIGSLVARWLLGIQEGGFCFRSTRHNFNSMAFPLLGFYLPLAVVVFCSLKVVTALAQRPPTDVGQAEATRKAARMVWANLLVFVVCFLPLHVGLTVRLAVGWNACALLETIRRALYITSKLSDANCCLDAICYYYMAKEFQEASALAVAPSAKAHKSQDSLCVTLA

HEK293 [9] = test: cells; conditions: Homo sapiens
[10] = target: T1, Nucleotide-binding oligomerization domain-containing protein 1 (Homo sapiens, UniProt Q9Y239); test: NOD1 signaling inhibitors, SAR follow-up, revised (AID 2333); type: functional
T1 sequence (Q9Y239 whole entry): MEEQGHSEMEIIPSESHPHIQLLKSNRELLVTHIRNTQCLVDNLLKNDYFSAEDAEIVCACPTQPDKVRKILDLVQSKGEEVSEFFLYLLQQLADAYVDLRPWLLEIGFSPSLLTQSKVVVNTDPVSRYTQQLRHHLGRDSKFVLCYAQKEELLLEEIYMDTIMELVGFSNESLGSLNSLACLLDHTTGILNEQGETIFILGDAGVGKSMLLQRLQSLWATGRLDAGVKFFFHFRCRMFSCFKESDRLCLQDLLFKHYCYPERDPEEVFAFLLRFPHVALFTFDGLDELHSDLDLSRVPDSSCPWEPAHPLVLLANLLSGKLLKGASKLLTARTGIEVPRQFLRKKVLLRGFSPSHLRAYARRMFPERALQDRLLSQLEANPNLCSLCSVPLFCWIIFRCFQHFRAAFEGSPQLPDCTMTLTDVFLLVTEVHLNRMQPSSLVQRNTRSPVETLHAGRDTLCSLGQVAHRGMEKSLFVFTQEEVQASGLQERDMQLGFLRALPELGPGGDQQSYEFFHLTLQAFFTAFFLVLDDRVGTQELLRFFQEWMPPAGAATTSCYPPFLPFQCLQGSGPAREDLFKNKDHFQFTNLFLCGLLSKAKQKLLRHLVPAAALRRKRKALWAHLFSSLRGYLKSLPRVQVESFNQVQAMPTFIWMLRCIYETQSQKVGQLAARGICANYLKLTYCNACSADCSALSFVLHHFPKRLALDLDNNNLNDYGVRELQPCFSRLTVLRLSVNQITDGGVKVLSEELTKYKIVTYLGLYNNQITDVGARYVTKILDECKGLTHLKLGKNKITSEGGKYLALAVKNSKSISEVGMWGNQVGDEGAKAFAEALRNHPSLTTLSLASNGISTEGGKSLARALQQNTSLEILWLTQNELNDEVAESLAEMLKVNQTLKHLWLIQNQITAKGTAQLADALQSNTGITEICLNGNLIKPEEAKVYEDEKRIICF

HEK293 [11] = test: cells; type: functional, cell-based; conditions: Homo sapiens; remark: listed apart in the source
Hexokinase HKDC1 = target: T2, Hexokinase HKDC1 (Homo sapiens, UniProt Q2TB90); test: HKDC1 hexokinase inhibitors, dose response, biochemical, W721R variant (AID 504729); type: functional
T2 sequence (Q2TB90 whole entry): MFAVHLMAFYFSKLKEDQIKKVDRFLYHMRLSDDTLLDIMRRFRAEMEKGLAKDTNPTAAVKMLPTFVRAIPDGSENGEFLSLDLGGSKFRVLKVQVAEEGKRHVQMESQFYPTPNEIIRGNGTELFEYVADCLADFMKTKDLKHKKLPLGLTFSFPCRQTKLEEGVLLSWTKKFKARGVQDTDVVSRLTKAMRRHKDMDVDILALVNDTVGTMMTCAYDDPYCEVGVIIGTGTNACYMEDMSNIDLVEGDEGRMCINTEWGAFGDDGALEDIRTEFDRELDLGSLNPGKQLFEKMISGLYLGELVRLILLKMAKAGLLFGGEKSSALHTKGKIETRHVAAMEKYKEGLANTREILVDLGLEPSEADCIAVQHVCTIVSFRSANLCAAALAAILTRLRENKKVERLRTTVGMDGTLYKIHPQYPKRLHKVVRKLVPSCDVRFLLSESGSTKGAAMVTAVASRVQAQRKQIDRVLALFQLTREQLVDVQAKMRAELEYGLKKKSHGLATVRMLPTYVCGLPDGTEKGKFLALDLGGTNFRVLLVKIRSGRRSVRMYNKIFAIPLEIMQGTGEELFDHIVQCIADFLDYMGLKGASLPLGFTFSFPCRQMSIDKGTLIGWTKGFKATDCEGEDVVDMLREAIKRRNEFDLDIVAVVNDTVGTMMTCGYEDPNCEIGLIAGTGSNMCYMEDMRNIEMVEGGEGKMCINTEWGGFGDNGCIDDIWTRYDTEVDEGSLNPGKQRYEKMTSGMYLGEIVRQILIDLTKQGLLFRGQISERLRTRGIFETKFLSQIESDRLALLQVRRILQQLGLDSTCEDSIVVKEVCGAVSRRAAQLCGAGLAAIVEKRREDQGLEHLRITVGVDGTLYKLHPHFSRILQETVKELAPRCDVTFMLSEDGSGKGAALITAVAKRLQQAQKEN

HEK293 [12] = test: NOD2 signaling inhibitors in MDP-stimulated cells, cell-based, uHTS, luminescence (AID 2001); type: functional; conditions: Homo sapiens
[13] = target: T3, Runt-related transcription factor 1/Core-binding factor subunit beta (Homo sapiens, UniProt Q01196+Q13951); test: inhibitors of RUNX1 Runt–CBFb-SMMHC binding, primary screen, biochemical, FRET, Cerulean-Runt, Venus-CBFb-SMMHC, uHTS (AID 1434); type: protein assay;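 also: partner is the CBFb-SMMHC leukemia fusion protein rather than wild-type CBFb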
T3 sequence (Q01196 whole entry, the tested form may be a part): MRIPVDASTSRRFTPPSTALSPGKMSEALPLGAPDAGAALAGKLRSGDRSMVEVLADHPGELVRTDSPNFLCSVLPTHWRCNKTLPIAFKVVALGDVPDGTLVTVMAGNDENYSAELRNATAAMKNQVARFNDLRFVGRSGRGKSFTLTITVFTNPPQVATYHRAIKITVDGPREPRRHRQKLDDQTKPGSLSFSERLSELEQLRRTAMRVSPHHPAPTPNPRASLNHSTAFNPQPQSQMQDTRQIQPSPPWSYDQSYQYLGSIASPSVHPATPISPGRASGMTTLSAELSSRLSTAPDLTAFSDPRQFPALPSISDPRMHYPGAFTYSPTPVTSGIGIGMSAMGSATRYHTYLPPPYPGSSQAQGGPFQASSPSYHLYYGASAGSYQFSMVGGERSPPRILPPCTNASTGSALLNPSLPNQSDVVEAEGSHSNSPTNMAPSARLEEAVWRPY
T3 sequence (Q13951 whole entry, the tested form may be a part): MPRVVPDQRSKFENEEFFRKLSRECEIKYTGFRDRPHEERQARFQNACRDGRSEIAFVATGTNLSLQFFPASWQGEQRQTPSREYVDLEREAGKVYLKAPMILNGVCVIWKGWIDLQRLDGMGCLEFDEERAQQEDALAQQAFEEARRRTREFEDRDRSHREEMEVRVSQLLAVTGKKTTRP

[14] = target: T4, Nucleotide-binding oligomerization domain-containing protein 2 (Homo sapiens, UniProt Q9HC29); test: PubChem AID 2334; type: functional
T4 sequence (Q9HC29 whole entry, the tested form may be a part): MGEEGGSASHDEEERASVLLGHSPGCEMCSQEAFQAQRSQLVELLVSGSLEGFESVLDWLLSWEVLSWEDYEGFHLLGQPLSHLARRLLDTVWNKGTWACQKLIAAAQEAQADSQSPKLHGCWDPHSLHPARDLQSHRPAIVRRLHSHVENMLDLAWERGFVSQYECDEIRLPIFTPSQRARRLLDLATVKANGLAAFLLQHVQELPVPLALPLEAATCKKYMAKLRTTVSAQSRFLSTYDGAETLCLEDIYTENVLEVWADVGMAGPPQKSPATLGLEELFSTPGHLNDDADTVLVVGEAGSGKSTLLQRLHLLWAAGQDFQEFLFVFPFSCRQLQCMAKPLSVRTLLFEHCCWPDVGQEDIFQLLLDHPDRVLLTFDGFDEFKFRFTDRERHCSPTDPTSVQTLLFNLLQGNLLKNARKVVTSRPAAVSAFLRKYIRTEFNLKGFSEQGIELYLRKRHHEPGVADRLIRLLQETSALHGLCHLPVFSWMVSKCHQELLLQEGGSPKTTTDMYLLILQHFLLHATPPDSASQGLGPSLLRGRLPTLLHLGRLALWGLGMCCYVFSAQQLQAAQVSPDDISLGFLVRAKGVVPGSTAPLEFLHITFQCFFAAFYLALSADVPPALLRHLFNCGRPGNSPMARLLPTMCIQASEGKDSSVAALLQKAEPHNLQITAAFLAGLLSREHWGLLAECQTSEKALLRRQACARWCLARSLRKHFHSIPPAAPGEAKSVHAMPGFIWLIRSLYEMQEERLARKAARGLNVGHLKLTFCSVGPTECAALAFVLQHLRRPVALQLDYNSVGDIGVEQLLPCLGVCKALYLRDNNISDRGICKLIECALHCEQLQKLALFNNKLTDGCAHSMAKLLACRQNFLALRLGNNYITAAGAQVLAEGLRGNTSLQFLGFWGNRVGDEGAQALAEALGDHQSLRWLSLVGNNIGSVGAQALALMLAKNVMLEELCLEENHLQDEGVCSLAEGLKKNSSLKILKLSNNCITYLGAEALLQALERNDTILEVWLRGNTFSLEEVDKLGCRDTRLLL

Beta-galactosidase = Beta-galactosidase (Escherichia coli, UniProt Q8VNN2); test: beta-galactosidase enzyme inhibitors and activators, dose response, artefact control for CCR6 antagonist project, biochemical, E. coli enzyme, set 3 (AID 504712); type: functional
Sequence of Beta-galactosidase (Q8VNN2 whole entry): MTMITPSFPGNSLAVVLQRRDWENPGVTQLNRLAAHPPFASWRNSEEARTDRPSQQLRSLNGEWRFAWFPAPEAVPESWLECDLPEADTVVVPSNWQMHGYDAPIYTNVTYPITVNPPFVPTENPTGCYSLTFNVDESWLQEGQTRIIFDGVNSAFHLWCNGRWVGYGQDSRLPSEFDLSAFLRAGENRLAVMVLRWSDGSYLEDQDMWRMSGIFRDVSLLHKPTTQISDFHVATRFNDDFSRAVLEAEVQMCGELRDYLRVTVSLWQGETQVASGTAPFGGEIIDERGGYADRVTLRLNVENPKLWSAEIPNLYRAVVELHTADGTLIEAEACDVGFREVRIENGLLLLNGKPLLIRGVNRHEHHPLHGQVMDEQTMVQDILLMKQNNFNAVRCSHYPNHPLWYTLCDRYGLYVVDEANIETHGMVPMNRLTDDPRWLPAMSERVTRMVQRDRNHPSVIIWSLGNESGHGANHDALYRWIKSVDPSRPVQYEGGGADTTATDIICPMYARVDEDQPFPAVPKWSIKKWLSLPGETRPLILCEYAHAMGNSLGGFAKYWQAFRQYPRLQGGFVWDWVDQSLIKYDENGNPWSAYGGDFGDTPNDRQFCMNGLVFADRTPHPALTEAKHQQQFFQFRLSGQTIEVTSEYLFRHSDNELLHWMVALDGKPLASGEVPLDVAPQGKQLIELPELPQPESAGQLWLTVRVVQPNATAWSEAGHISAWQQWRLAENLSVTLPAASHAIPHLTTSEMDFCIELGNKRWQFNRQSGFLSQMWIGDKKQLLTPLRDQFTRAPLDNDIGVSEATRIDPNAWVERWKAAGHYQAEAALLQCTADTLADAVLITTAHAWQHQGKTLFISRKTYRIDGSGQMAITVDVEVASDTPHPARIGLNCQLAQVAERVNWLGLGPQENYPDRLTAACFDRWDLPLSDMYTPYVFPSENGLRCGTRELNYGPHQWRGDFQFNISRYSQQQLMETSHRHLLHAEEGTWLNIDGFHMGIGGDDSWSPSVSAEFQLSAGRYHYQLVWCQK

HEK293 [15] = test: NOD1 signaling inhibitors, primary screen, cell-based, luminescence, uHTS (AID 1578); type: functional; conditions: Homo sapiens
[16] = target: T3, Runt-related transcription factor 1/Core-binding factor subunit beta; test: inhibitors of RUNX1 Runt–CBFb-SMMHC binding, biochemical, TR-FRET (AID 1438); type: protein assay
[17] = target: T4, Nucleotide-binding oligomerization domain-containing protein 2; test: NOD2 signaling inhibitors, cell-based, luminescence, uHTS, HEK293 (AID 1566); type: functional
Tumor necrosis factor = Tumor necrosis factor (Homo sapiens, UniProt P01375); test: TNFa-triggered NF-kB activation inhibitors, SAR follow-up, cell-based, revised (AID 2337); type: functional
Sequence of Tumor necrosis factor (P01375 whole entry): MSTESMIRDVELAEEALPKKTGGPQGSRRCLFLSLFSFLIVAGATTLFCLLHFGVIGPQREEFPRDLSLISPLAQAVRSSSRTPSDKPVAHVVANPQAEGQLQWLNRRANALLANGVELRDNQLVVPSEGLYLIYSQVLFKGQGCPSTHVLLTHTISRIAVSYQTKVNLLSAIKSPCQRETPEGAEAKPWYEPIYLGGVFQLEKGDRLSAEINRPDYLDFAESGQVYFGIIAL

[18] = THP-1 cell cytotoxicity, dose response, cytotoxicity control for Vif-APOBEC3G degradation inhibitor project, THP-1 cells (AID 1117359); type: functional; conditions: Human immunodeficiency virus 1, THP-1
CAAX prenyl protease 2 = target: T5, CAAX prenyl protease 2 (Saccharomyces cerevisiae S288c, UniProt Q03530); type: biochemical
T5 sequence (Q03530 whole entry): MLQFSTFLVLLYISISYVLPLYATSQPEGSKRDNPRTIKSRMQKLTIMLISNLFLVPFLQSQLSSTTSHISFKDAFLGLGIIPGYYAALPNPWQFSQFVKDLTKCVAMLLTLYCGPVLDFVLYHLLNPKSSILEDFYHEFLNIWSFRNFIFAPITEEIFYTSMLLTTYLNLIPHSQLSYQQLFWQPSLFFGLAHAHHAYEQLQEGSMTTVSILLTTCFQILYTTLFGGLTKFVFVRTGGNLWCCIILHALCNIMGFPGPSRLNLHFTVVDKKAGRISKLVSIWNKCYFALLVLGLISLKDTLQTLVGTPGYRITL

Trypsin = Trypsin (Sus scrofa, UniProt P00761); test: porcine trypsin inhibitors, dose response, selectivity assay for Rce1 protease inhibitor project, biochemical, quenched peptide fluorescence, cherry-pick (AID 488789)
Sequence of Trypsin (P00761 whole entry, the tested form may be a part): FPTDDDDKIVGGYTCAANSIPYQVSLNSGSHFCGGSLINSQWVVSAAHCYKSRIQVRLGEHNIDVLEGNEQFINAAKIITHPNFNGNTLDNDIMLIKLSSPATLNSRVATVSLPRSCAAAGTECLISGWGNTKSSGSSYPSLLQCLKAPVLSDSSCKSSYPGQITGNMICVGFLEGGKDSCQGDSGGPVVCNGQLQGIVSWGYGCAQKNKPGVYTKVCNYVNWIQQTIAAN

[19] = target: Type-1 angiotensin II receptor (Homo sapiens, UniProt P30556); test: AT1 receptor agonists, dose response, selectivity assay for APJ receptor agonist project, cell-based, uHTS hits (AID 488865); type: functional;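 also: beta-arrestin recruitment to AT1 measured by enzyme fragment complementation luminescence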
Sequence of Type-1 angiotensin II receptor (P30556 whole entry, the tested form may be a part): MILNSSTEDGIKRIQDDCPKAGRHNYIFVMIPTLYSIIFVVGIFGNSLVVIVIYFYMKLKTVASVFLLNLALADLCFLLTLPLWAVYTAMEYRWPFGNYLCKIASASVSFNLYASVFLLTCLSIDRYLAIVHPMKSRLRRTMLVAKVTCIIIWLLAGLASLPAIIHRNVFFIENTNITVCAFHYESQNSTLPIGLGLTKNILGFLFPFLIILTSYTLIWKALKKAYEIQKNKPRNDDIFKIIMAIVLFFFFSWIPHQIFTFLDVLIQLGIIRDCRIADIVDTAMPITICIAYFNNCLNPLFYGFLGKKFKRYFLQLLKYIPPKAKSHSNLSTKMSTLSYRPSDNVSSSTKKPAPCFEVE

BJ [20] = test: cytotoxicity toward BJ-TERT-LT-ST fibroblasts, dose response, cell-based, RAS-independent, luminescence (AID 1935); type: functional; conditions: Homo sapiens;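 also: BJ fibroblasts immortalized with TERT plus LT and ST oncogenes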
[21] = Luminescence Cell-Based Dose Response HTS to Identify Inhibitors of Luciferase Translation or Activity in H4-C Neuroglioblastoma Cells. [Related pubchem assays: 1813 (Primary HTS), 1827 (Project Summary)]; type: functional
BJ [22] = test: cells; type: functional, cell-based; conditions: Homo sapiens
[23] = Luminescence Cell-Based Dose Retest to Confirm Activators of 5'UTR Stem-Loop Driven Alpha-Synuclein mRNA Translation in H4 Neuroglioblastoma Cells. [Related pubchem assays (depositor defined):AID1813, AID1829]; type: functional
[24] = Luminescence Cell-Based Dose HTS Response to Identify Inhibitors of 5'UTR Stem-Loop Driven Prion Protein mRNA Translation in H4-C Neuroglioblastoma Cells. [Related pubchem assays (depositor defined):AID1814, AID1827]; type: functional
BJ [25] = test: cytotoxicity toward BJ-TERT fibroblasts, dose response, cell-based, RAS-independent, luminescence (AID 1933); type: functional; conditions: Homo sapiens
[26] = cytotoxicity toward DRD oncogenic fibroblasts, dose response, cell-based, non-viral oncogenic, luminescence (AID 1934); type: functional; conditions: Homo sapiens
[27] = Luminescence Cell-Based Dose Confirmation HTS to Identify Inhibitors of 5'UTR Stem-Loop Driven Alpha-Synuclein mRNA Translation in H4 Neuroglioblastoma Cells. [Related pubchem assays: 1827 (Project Summary), 1813 (Primary HTS)]; type: functional
[28] = Luminescence Cell-Based Dose Response HTS to Identify Activators of 5'UTR Stem-Loop Driven Prion Protein mRNA Translation in H4-C Neuroglioblastoma Cells. [Related pubchem assays: 1829 (Project Summary), 1814 (Primary HTS)]; type: functional
[29] = Luminescence Cell-Based Dose Response HTS to Identify Activators of Luciferase Translation or Activity in H4-C Neuroglioblastoma Cells. [Related pubchem assays: 1829 (Project Summary), 1814 (Primary HTS)]; type: functional

Sequence of Coagulation factor XII (P00748 20-372 limits assumed): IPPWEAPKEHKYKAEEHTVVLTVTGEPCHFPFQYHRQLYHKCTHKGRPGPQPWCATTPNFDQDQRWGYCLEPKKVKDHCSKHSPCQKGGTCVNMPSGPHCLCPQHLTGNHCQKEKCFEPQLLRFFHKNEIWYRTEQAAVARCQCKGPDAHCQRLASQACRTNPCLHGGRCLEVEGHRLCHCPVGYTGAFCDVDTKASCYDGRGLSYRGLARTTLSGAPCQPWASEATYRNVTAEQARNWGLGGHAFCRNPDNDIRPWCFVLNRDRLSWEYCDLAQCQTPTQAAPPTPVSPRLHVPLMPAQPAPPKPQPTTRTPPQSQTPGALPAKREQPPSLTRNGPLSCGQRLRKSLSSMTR
Sequence of Coagulation factor XII (P00748 373-615 limits assumed): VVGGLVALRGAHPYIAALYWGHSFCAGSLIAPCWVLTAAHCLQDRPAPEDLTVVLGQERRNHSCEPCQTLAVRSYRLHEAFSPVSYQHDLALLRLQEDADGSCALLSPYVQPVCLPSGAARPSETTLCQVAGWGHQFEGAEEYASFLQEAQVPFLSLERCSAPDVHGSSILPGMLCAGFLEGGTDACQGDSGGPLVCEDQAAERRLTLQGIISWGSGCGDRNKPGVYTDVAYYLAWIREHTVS

COc1cc(OC)c2c(N)c(C#N)c(C(F)(F)C(F)(F)F)nc2c1
IC50 (Coagulation factor XII): > 50 µM (inactive)

CCc1ccc(NC(=O)C(C)OC(=O)c2c(C)nn(Cc3ccccc3)c2Cl)cc1 (stereo not drawn)
EC50 [1]: > 120 µM (not active)
EC50 [2]: 16.4 µM (active)
EC50 [3]: > 50 µM (inactive)
EC50 [4]: > 120 µM (not active)

CCOC(=O)C1=C(Cc2ccc(Cl)cc2)C(=O)c2ccccc2C1=O
IC50 (HEK293 [5]): > 20 µM (inactive)
IC50 (HEK293 [6]): > 20 µM (inactive)
AC50 [7]: 27.2 µM (active)
IC50 [8]: 4.3 µM (active)
IC50 (HEK293 [9]): > 20 µM (inactive)
IC50 [10]: 5.78 µM (active)
IC50 (HEK293 [11]): > 20 µM (inactive)
IC50 (Hexokinase HKDC1): 12.2 µM (active)
IC50 (HEK293 [12]): > 20 µM (inactive)
IC50 [13]: > 100 µM (inactive)
IC50 [14]: 7.01 µM (active)
IC50 (Beta-galactosidase): > 66.6 µM (inactive)
EC50 (HEK293 [15]): 12.2 µM (active)
IC50 [16]: 43.6 µM (active)
EC50 [17]: > 20 µM (inactive)
IC50 (Tumor necrosis factor): 6.24 µM (active)
CC50 [18]: 19.4 µM (active)

CCC(C)NC(=O)CSC1=Nc2ccccc2C2=NC(CC(=O)NCc3ccc(F)cc3)C(=O)N12 (stereo not drawn)
AC50 (CAAX prenyl protease 2): 15.8 µM (active)
AC50 (Trypsin): 16.1 µM (active)
EC50 [19]: > 100 µM (inactive)

COc1ccc2c(c1)C(C)=CC(C)(C)N2S(=O)(=O)c1ccc(NC(C)=O)cc1
EC50 (BJ [20]): 7.05 µM (inconclusive)
EC50 [21]: 2.91 µM (active)
EC50 (BJ [22]): 5.92 µM (active)
EC50 [23]: 11.6 µM (inconclusive)
EC50 [24]: 1.69 µM (active)
EC50 [1]: > 60 µM (not active)
EC50 (BJ [25]): 1.89 µM (inconclusive)
EC50 [26]: 1.06 µM (inconclusive)
EC50 [27]: 11.6 µM (active)
EC50 [28]: 1.69 µM (inconclusive)
EC50 [2]: 14.4 µM (active)
EC50 [29]: 2.91 µM (inconclusive)
EC50 [4]: 0.514 µM (active)
